According to paper PMC11324046, “Second-generation piperazine derivatives as promising radiation countermeasures” (RSC Medicinal Chemistry, 2024):
Like-named read-outs stand apart in the source and are kept apart here.

How the values were obtained:
[1] = test system: Whole blood from healthy human donors; assay: Dicentric chromosome assay (DCA); assay type: cell-based; settings: 3 Gy gamma
Method: The radioprotective effect of eight compounds was assessed using the cytogenetic method of DCA. DCA is known for its high sensitivity to radiation exposure and its specificity, and is thus considered a gold standard for biological dosimetry. It is also applicable to reveal the radioprotective potential of substances, as their effect is to protect DNA from forming dicentric chromosomes after IR exposure. This assay included six newly synthesized substances as well as amifostine (WR2721) and its active form (WR1065). WR2721 and WR1065 served as benchmarks, allowing us to measure the radioprotective effect of our compounds against these well-established radioprotectors. Whole blood from healthy human donors was utilized for DCA, and it was irradiated with 3 Gy gamma radiation after exposure to the tested compounds. Each experiment included irradiated and non-irradiated controls. The experiments were conducted at two different concentrations of the substances. For the newly synthesized compounds, 100 μM and an optimal non-toxic concentration which varied between 200–1000 μM were used. […] The results were interpreted as the number of dicentric chromosomes per cell.
To express the radioprotective effect the radioprotection factor (RF) was calculated as the […] (Table 2). RF expresses how many-fold the DC count in the sample decreased compared to the irradiated control.
Blood samples from healthy male donors were taken in heparinized tubes, with informed consent and the approval of a local ethics committee. Blood samples (1 ml) were treated with eight different substances (WR2721, WR1065, and 1–6) in two different concentrations. Non-treated irradiated and non-treated non-irradiated controls were included. All samples were exposed to a single dose of 3 Gy of gamma radiation (at the dose rate of 0.6 Gy min^−1, using the ^60Co Chisobalt, Chirana, Prague, Czech Republic). […] The dose of 3 Gy was selected to ensure a sufficient quantity of dicentric chromosomes in lymphocytes. Immediately after irradiation, the samples were placed in a humidified atmosphere with 5% CO2 at 37 °C for 30 min. Treated and irradiated blood samples were added to T-25 cultivation flasks containing 10 ml RPMI 1640 with 20% fetal bovine serum and 2% phytohaemagglutinin (all Gibco by Thermo Fisher Scientific, Waltham, MA, USA). Colcemid at a final concentration of 0.25 μg ml^−1 (Gibco by Thermo Fisher Scientific, Waltham, MA, USA) was added to each culture tube 48 h after culture initiation. Cells were cultivated for another 2 h and then harvested.
At the harvest time (total time 50 h), cell pellets obtained after centrifugation at 600 × g for 3 min were resuspended and treated with 10 ml of prewarmed 0.075 M solution of potassium chloride (Gibco by Thermo Fisher Scientific, Waltham, MA, USA) for 20 min. After another centrifugation, cells were treated three times with fixative solution consisting of 3 : 1 (v/v) methanol : acetic acid (penta Chemicals, Prague, Czech Republic). Fixed cells were dropped on ice-cold microscope slides, air-dried overnight, and stained with 5% Giemsa solution (P-Lab, Prague, Czech Republic) for 6 min. Prepared slides were evaluated using automated metaphase finding systems. The slides with metaphases were analyzed by Axio Imager 2 (Carl Zeiss Microscopy GmbH, Göttingen, Germany) and Metafer 4 software (MetaSystems Hard & Software GmbH, Altlußheim, Germany). At first, the images of the metaphases in lower magnification were acquired (MSearch TL mode). Following that, the images of good-quality metaphases in higher resolution were acquired (AutoCapt mode). The data obtained were analyzed manually (manual selection of good-quality metaphases and dicentric chromosome detection).

MOLT-4 cells = assay: Annexin V/PI flow cytometry viability of irradiated MOLT-4 cells; assay type: cell-based, human; settings: 2 Gy; for viability at 100 µM / viability at 200 µM: Homo sapiens, 2 h pretreatment, 24 h
Method: Consequently, we investigated whether the pre-application of these substances can augment the survival of MOLT-4 cells after irradiation exposure. The radioprotective investigation utilized a leukemia MOLT-4 cell model of hematopoietic origin with flow cytometric quantification of cell viability via annexin V/propidium iodide staining.
In the following step, at 24 h after irradiation, MOLT-4 cell viability and cell death were determined by flow cytometry using an Alexa Fluor® 488 annexin V/Dead Cell Apoptosis kit (Life Technologies, Grand Island, NY, USA) following the manufacturer's instructions. The Alexa Fluor®488 annexin V/Dead Cell Apoptosis kit employs the property of Alexa Fluor®488 conjugated to annexin V to bind to phosphatidylserine in the presence of Ca^2+; and the ability of propidium iodide to enter cells with damaged cell membranes and bind to DNA. For each sample, a minimum of 20 000 events were acquired using a CytoFLEX LX flow cytometer (Beckman Coulter, Miami, FL, USA). List mode data were analyzed using Kaluza Analysis 2.1 software (Beckman Coulter, Miami, FL, USA).

[2] = 100 μM, 60 min pre-exposure, lower concentrations experiment
[3] = 500 μM (optimal non-toxic concentration), 60 min pre-exposure
[4] = MOLT-4, representative histogram Fig. 5A (2 Gy alone 26 %), read-out: Viable (annexin V/PI negative) MOLT-4 cells, compound + 2 Gy
[5] = MOLT-4, representative histogram Fig. 6A (2 Gy alone 27 %), read-out: Viable (annexin V/PI negative) MOLT-4 cells, compound + 2 Gy
[6] = 10 μM, 30 min pre-exposure, lower concentrations experiment
[7] = 100 μM, 30 min pre-exposure, higher concentrations experiment
[8] = MOLT-4, light or radiation study, annexin V/PI negative cells, read-out: Viability rate of MOLT-4 cells relative to 2 Gy irradiation alone (100%)
[9] = MOLT-4, annexin V/PI negative cells, read-out: Viable MOLT-4 cells relative to 2 Gy radiation alone (100%)

Compound | RF (radioprotection factor) [1, 2] | RF (radioprotection factor) [1, 3] | viability at 100 µM (MOLT-4 cells; [4]) | viability at 200 µM (MOLT-4 cells; [5]) | RF (radioprotection factor) [1, 6] | RF (radioprotection factor) [1, 7] | viability at 100 µM (MOLT-4 cells; [8]) | viability at 200 µM (MOLT-4 cells; [9]) | RF (radioprotection factor) ([1]; 200 μM (optimal non-toxic concentration), 60 min pre-exposure) | Radioprotective effect in MOLT-4 cells (in words) (MOLT-4 cells; 100 μM and 200 μM)
COc1ccc(OCC(O)CN2CCN(CCO)CC2)c([N+](=O)[O-])c1 (stereo not shown) [Compound 2, 1-(4-(2-Hydroxyethyl)piperazin-1-yl)-3-(4-methoxy-2-nitrophenoxy)propan-2-ol] | 1.23 | 1.97 | 35% | 36% | – | – | – | – | – | –
NCCCNCCSP(=O)(O)O [WR2721, amifostine, reference compound] | – | – | 28% | 22% | 1.33 | 1.45 | 106% | – | – | –
O=[N+]([O-])c1ccc(OCC(O)CN2CCN(CCO)CC2)c(F)c1 (stereo not shown) [Compound 3, 1-(4-(2-Hydroxyethyl)piperazin-1-yl)-3-(2-fluoro-4-nitrophenoxy)propan-2-ol] | 2.43 | 4.16 | 31% | 35% | – | – | – | – | – | –
OCCN1CCN(CC(O)COc2cccc(Cl)c2)CC1 (stereo not shown) [Compound 6, 1-(4-(2-Hydroxyethyl)piperazin-1-yl)-3-(3-chlorophenoxy)propan-2-ol] | 2.1 | 2.69 | 37% | 39% | – | – | 135% | 137% | – | –
COc1cc([N+](=O)[O-])ccc1OCC(O)CN1CCN(CCO)CC1 (stereo not shown) [Compound 1, 1-(4-(2-Hydroxyethyl)piperazin-1-yl)-3-(2-methoxy-4-nitrophenoxy)propan-2-ol] | 1.42 | 1.97 | 35% | 36% | – | – | – | – | – | –
O=[N+]([O-])c1cc(OCC(O)CN2CCN(CCO)CC2)ccc1Cl (stereo not shown) [Compound 5, 1-(4-(2-Hydroxyethyl)piperazin-1-yl)-3-(4-chloro-3-nitrophenoxy)propan-2-ol] | 1.65 | – | 32% | 30% | – | – | – | – | 1.91 | –
NCCCNCCS [WR1065, reference compound] | – | – | 19% | 9% | 1.59 | 1.96 | – | – | – | did not exhibit distinct radioprotective effects
OCCN1CCN(CC(O)COc2ccc(F)cc2)CC1 (stereo not shown) [Compound 4, 1-(4-(2-Hydroxyethyl)piperazin-1-yl)-3-(4-fluorophenoxy)propan-2-ol] | 1.65 | – | 35% | 37% | – | – | 143% | 145% | – | –
